Test results published in patent US8232407B2, “Nitrogenous heterocyclic compounds with insecticidal activity, and the preparation and use thereof” (East China University of Science and Technology, priority 2008, dated 2012).

How the values were obtained:
Type in all cases: in vivo
Aphis craccivoral = assay: Insecticidal activities to aphids, immersion method; details: for Aphis craccivoral Mortality (%) 500 ppm: in vivo
Outline: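 Immersion assay: compound diluted from 10 g/L DMF stock to 500 ppm in 0.2 mL/L Triton X-100, sprout-feeding wingless adults dipped 5 s. Kept at 23° C, three repeats; 24 h mortality calculated relative to surviving Triton-treated controls.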

Nilaparvata lugens = assay: Insecticidal activities to plant hopper, spraying method; details: for Nilaparvata lugens Mortality (%) 500 ppm: in vivo
Outline: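 Spray test: acetone solutions of 500 down to 0.79 ppm, 2 ml per tumbler holding 10 planthoppers introduced 6 h earlier, triplicate, aqueous acetone as control. Mortality at 24 h calculated from survivors relative to control.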

[1] = test system: Pseudaletia separate Walker; assay: Insecticidal activities to armyworm, leaf dipping and feeding
Outline: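 Armyworms (10 per tumbler, 3 replicates) ate fresh maize leaves that had been immersed for 3 seconds in compound solutions of 1.57-500 ppm in acetone, or in aqueous acetone for controls. Kills were scored at 24 h, and mortality was calculated relative to survivors in the control group.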

Plutella xylostella = assay: Insecticidal activities to diamondback moth, feeding dipped leaves; details: for Plutella xylostella Mortality (%) 500 ppm: in vivo
Outline: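 Mortality was scored 24 h after larvae of Plutella xylostella (10 per treatment, 3 repeats) fed on cabbage leaves immersed 3 s in test solution and dried at room temperature. It was computed relative to survivors in a water-treated control.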

| SMILES | Aphis craccivoral Mortality (%) 500 ppm (Aphis craccivoral) [%] | Nilaparvata lugens Mortality (%) 500 ppm (Nilaparvata lugens) [%] | Pseudaletia separate Walker Mortality (%) 500 ppm ([1]; in vivo) [%] | Plutella xylostella Mortality (%) 500 ppm (Plutella xylostella) [%] | mortality at 500 ppm (Aphis craccivoral; Aphis, read-out: Aphis craccivoral Mortality (%) 500 ppm) [%] | mortality at 500 ppm (Nilaparvata lugens; Nilaparvata lugens, 24 h, read-out: Nilaparvata lugens Mortality (%) 500 ppm) [%] | Pseudaletia separate Walker Mortality (%) 500 ppm ([1]; 500 ppm, leaf dipping and feeding, counted after 24 hours) [%] | mortality at 500 ppm (Plutella xylostella; Plutella xylostella, 24 h, read-out: Plutella xylostella Mortality (%) 500 ppm) [%] |
| --- | --- | --- | --- | --- | --- | --- | --- | --- |
| O=[N+]([O-])C(=Cc1oc(Cl)cc1Cl)C1=NCCN1CC1CCOC1 (stereo not shown) [Compound 99] | 87 | 97 | 100 | 100 | – | – | – | – |
| O=[N+]([O-])C(=Cc1cccnc1)C1=NCCN1Cc1ccc(Cl)nc1 [Compound 38] | 97 | 100 | 95 | 87 | – | – | – | – |
| O=[N+]([O-])C(=Cc1ccc([N+](=O)[O-])o1)C1=NCCN1CC1CCOC1 (stereo not shown) [Compound 93] | 78 | 87 | 100 | 96 | – | – | – | – |
| O=[N+]([O-])C(=Cc1cc(Br)c(Br)o1)C1=NCCN1Cc1ccc(Cl)nc1 [Compound 10] | 100 | 100 | 100 | 100 | – | – | – | – |
| O=[N+]([O-])C(=Cc1ccc(CO)o1)C1=NCCN1Cc1ccc(Cl)nc1 [Compound 15] | 100 | 100 | 100 | 100 | – | – | – | – |
| Cc1coc(C=C(C2=[N+](C)CCN2Cc2ccc(Cl)nc2)[N+](=O)[O-])c1.[Cl-] [Compound 256] | 100 | 100 | 100 | 100 | – | – | – | – |
| CC(=C(C1=NCCN1Cc1ccc(Cl)nc1)[N+](=O)[O-])c1ccc(Br)s1 [Compound 119] | 75 | 91 | 46 | 87 | – | – | – | – |
| C[N+]1=C(C(=Cc2ccc(Cl)s2)[N+](=O)[O-])N(Cc2cnc(Cl)s2)CC1.[Cl-] [Compound 283] | 100 | 100 | 100 | 100 | – | – | – | – |
| O=[N+]([O-])C(=Cc1ccc(Cl)o1)C1=NCCN1Cc1cnc(Cl)s1 [Compound 71] | 100 | 100 | 100 | 100 | – | – | – | – |
| Cc1ccc(C=C(C2=[N+](C)CCN2Cc2ccc(Cl)nc2)[N+](=O)[O-])o1.[Cl-] [Compound 255] | 100 | 100 | 100 | 100 | – | – | – | – |
| CC(c1ccc(Cl)nc1)N1CCN=C1C(=Cc1ccc([N+](=O)[O-])s1)[N+](=O)[O-] (racemic) [Compound 129] | 100 | 100 | 100 | 80 | – | – | – | – |
| Cc1csc(C=C(C2=[N+](C)CCN2Cc2ccc(Cl)nc2)[N+](=O)[O-])c1.[Cl-] [Compound 271] | 100 | 100 | 100 | 100 | – | – | – | – |
| N#CC(=Cc1ccc(CO)o1)C1=NCCN1Cc1ccc(Cl)nc1 [Compound 145] | 92 | 100 | 100 | 100 | – | – | – | – |
| C[N+]1=C(C(=Cc2cc(Br)co2)[N+](=O)[O-])N(Cc2ccc(Cl)nc2)CC1.[Cl-] [Compound 250] | 100 | 100 | 100 | 100 | – | – | – | – |
| C[N+]1=C(C(=Cc2ccsc2)[N+](=O)[O-])N(Cc2ccc(Cl)nc2)CC1.[Cl-] [Compound 260] | 90 | 92 | 80 | 89 | – | – | – | – |
| O=[N+]([O-])C(=Cc1ccc(Cl)o1)C1=NCCCN1Cc1ccc(Cl)nc1 [Compound 49] | 100 | 100 | 100 | 100 | – | – | – | – |
| O=[N+]([O-])C(=Cc1ccc(CO)s1)C1=NCCN1Cc1ccc(Cl)nc1 [Compound 30] | 100 | 100 | 100 | 100 | – | – | – | – |
| O=[N+]([O-])C(=Cc1ccsc1)C1=NCCN1Cc1ccc(Cl)nc1 [Compound 17] | 100 | 100 | 100 | 100 | – | – | – | – |
| CCc1ccc(C=C(C2=[N+](C)CCN2Cc2ccc(Cl)nc2)[N+](=O)[O-])s1.[Cl-] [Compound 272] | 100 | 100 | 100 | 100 | – | – | – | – |
| C[N+]1=C(C(=Cc2cc(Cl)cs2)[N+](=O)[O-])N(Cc2ccc(Cl)nc2)CC1.[Cl-] [Compound 264] | 100 | 100 | 100 | 100 | – | – | – | – |
| C[N+]1=C(/C(=C\c2ccc[nH]2)[N+](=O)[O-])N(Cc2cnc(Cl)s2)CC1.[Cl-] [Compound 284] | 100 | 100 | 100 | 100 | – | – | – | – |
| O=[N+]([O-])/C(=C/c1ccco1)C1=NCCN1CC1CCOC1 (stereo not shown) [Compound 91, 2-(2-(furan-2-yl)-1-nitrovinyl)-1-((tetrahydrofuran-3-yl)methyl)-4,5-dihydro-1H-imidazole] | – | – | – | – | 87 | 100 | 98 | 100 |
| O=[N+]([O-])C(=Cc1sc(Br)cc1Br)C1=NCCN1Cc1ccc(Cl)nc1 [Compound 26] | 100 | 100 | 100 | 100 | – | – | – | – |
| O=[N+]([O-])C(=Cc1ccc(Br)s1)C1=NCCN1Cc1ccc(Cl)nc1 [Compound 20] | 100 | 100 | 100 | 100 | – | – | – | – |
| CC(c1ccc(Cl)nc1)N1CCN=C1C(=Cc1ccc(Cl)o1)[N+](=O)[O-] (racemic) [Compound 125] | 100 | 100 | 98 | 100 | – | – | – | – |
| O=[N+]([O-])C(=Cc1cc(Cl)cs1)C1=NCCN1Cc1cnc(Cl)s1 [Compound 88] | 100 | 100 | 100 | 100 | – | – | – | – |
| O=[N+]([O-])C(=Cc1ccc(Br)o1)C1=NCCN1Cc1ccc(Cl)nc1 [Compound 5] | 100 | 100 | 100 | 100 | – | – | – | – |
| O=[N+]([O-])C(=Cc1ccccc1O)C1=NCCN1Cc1ccc(Cl)nc1 [Compound 45] | 56 | 76 | 89 | 23 | – | – | – | – |
